In publication PMC5423977, “Safety, pharmacokinetics, and pharmacodynamics of BMS-986142, a novel reversible BTK inhibitor, in healthy participants” (European Journal of Clinical Pharmacology, 2017):
Where two headings read alike, the source gives them in different places.

Legend:
[1] = Plasma pharmacokinetics of BMS-986142, MAD; format: in vivo, human; conditions: for AI_AUC geometric mean (%CV): MAD; for AI_AUC geometric mean (%CV) / AUC / Cmax / concentration at 14 day / Tmax / half-life: n = 6; for AUC / Cmax / concentration at 14 day / Tmax / half-life: human, plasma, oral; for AUC: read-out: AUC(TAU) geometric mean (%CV); for Cmax: read-out: Cmax geometric mean (%CV); for concentration at 14 day: read-out: Cmin geometric mean (%CV); for Tmax: read-out: Tmax median (min, max); for half-life: read-out: T1/2 mean (SD) (converted)
Procedure: Eligible participants were confined to the clinical facility (WCCT Global, LLC, Cypress, CA) the day before dosing (day −1) and randomized to receive SAD or MAD treatment under fasting conditions for 10 h. In the SAD group, eight healthy non-Japanese participants were assigned to each of up to six sequential dose panels (single oral doses of 5, 15, 50, 100, 300, and 900 mg BMS-986142) or placebo. Within each dose panel, participants were randomized in a 3:1 ratio to receive BMS-986142 (n = 6) or placebo (n = 2). In the MAD group, eight healthy non-Japanese participants were assigned to each of four sequential dose panels (daily oral doses of 25, 75, 200, and 350 mg BMS-986142) or placebo. Within each dose panel, participants were randomized in a 3:1 ratio to receive once-daily (QD) doses of BMS-986142 or placebo from day 1 to day 14 (Online Resource 1). Escalation to the next dose level in SAD and MAD was conducted after safety assessment had been completed and the treatment was considered safe and well tolerated. Additionally, dose levels in MAD were selected not to exceed the steady-state exposure of BMS-986142 (AUC: 22,920 ng h/mL) at NOAEL in rats obtained from a 1-month GLP toxicology study.
(§1) Blood samples for the measurement of BMS-986142 were collected up to 168 h after dosing of BMS-986142 on day 1 for participants in SAD. In MAD, blood samples were collected up to 24 h on day 1 and up to 120 h on day 14 (the last day of treatment). Blood samples for the measurement of MTX were collected up to 48 h after dosing of MTX on days 1 and 8.
(§2) Plasma samples were analyzed for BMS-986142 levels with a validated method using liquid chromatography tandem mass spectrometry (LC-MS/MS) detection. The analyte was extracted from 50 μL of plasma using a liquid–liquid extraction method. Methyl tert-butyl ether was used as the extraction solvent. The lower limit of quantification (LLOQ) was 1.00 ng/mL in plasma. Plasma samples were analyzed for methotrexate levels using LC-MS/MS detection. Analytes were isolated from 50 μL plasma through solid phase extraction using Waters Oasis MAX, 10-mg, 96-well SPE plates. The final extract was analyzed using LC-MS/MS detection. LLOQ was 1.00 ng/mL in plasma. Detailed methodology quantitating the concentration level of BMS-986142 and MTX is provided in Online Resource 10.
(§3) Individual subject pharmacokinetic parameters for BMS-986142 and MTX were derived by a non-compartmental method using validated PK software (WinNonLin version 6.3; Pharsight Corporation, Mountain View, CA, USA). The following PK parameters for BMS-986142 and MTX were derived from plasma concentration versus time data: maximum observed plasma concentration (Cmax); minimum observed plasma concentration (Cmin); time to maximum observed plasma concentration (Tmax); area under the plasma concentration-time curve from time zero to the time of the last quantifiable concentration (AUC(0-T)), from time zero extrapolated to infinite time (AUC(inf)), and in one dosing interval (AUC(TAU)); terminal plasma half-life (T1/2); and AUC accumulation index (AI_AUC). AI_AUC was calculated to divide AUC(TAU) on day 14 by AUC(TAU) on day 1.
Summary statistics were tabulated for all PK parameters by treatment and study days. Geometric mean (Gmean) and coefficient of variation (CV) are presented for Cmax, AUC(0-T), AUC(inf), AI_AUC, Cmin, and AUC(TAU); arithmetic mean and standard deviation (SD) are presented for T1/2; and median and range are presented for Tmax. Dose proportionality was assessed using the previously described power model. Briefly, the simple linear regression was applied to the natural log of the PK parameters on the natural log of dose using the following equation (Eq. 1).1 ElogPKParameterDose=α+β∗logDose.
A slope (β) equal to 1 would indicate perfect dose proportionality. For each PK parameter (Cmax, AUC(0-T), AUC(TAU), and AUC(inf)), point estimates and 90% CI of the slopes were calculated.

[2] = Effect of BMS-986142 on single-dose plasma PK of MTX (DDI); format: in vivo, human; conditions: BMS-986142 350 mg QD, MTX 7.5 mg single dose
Procedure: as §1, §2, §3
Statistical analyses were conducted to assess the effect of coadministration of BMS-986142 on the PK of MTX. For all treatment comparisons, a linear mixed-effect model was fitted to the log-transformed PK parameters Cmax, AUC(0-T), and AUC(inf). Point estimates and 90% CIs for differences on the log-scale were exponentiated to obtain estimates for geometric mean ratios (GMRs) and respective 90% CIs on the original scale. Sample size determination is based on consideration of the precision of the estimate of the GMRs of AUCs of MTX with and without BMS-986142. With 9 evaluable subjects, there will be an 80% probability that the 90% CI of AUC(INF) GMR will be within 89.9 to 111.2% of the point estimate. These precision estimates are based on an assumption that Cmax and AUC(INF) of MTX are log-normally distributed with intrasubject CV of 14.67 and 10.38%, respectively, as calculated from Namour et al..

[3] = both sexes, MAD day 14, 25 mg QD

Cc1c(-c2c(F)cc(C(N)=O)c3[nH]c4c(c23)CC[C@H](C(C)(C)O)C4)cccc1-n1c(=O)c2cccc(F)c2n(C)c1=O [BMS-986142, 6-fluoro-5-(R)-(3-(S)-(8-fluoro-1-methyl-2,4-dioxo-1,2-dihydroquinazolin-3(4H)-yl)-2-methylphenyl)-2-(S)-(2-hydroxypropan-2-yl)-2,3,4,9-tetrahydro-1H-carbazole-8-carboxamide]
Accumulation (accumulation index for AUC) ([1]; MAD 25-350 mg QD): minimal to modest accumulation
AI_AUC geometric mean (%CV) ([1]; AUC(TAU) day 14 / day 1, 25 mg QD): 1.57 (22)
AI_AUC geometric mean (%CV) ([1]; AUC(TAU) day 14 / day 1, 75 mg QD): 1.23 (31)
AI_AUC geometric mean (%CV) ([1]; AUC(TAU) day 14 / day 1, 200 mg QD): 1.23 (40)
AI_AUC geometric mean (%CV) ([1]; AUC(TAU) day 14 / day 1, 350 mg QD): 0.984 (32)
AUC [1, 3]: 539 ng·h/mL
Cmax [1, 3]: 56 ng/mL
concentration at 14 day [1, 3]: 7.85 ng/mL
Tmax [1, 3]: 2 h
half-life ([1]; MAD day 14, 25 mg QD): 10.9 h
AUC ([1]; MAD day 14, 75 mg QD): 2470 ng·h/mL
Cmax ([1]; MAD day 14, 75 mg QD): 281 ng/mL
concentration at 14 day ([1]; MAD day 14, 75 mg QD): 27.9 ng/mL
half-life ([1]; MAD day 14, 75 mg QD): 10.7 h
Tmax ([1]; MAD day 14, 75 mg QD): 2 h
AUC ([1]; MAD day 14, 200 mg QD): 5530 ng·h/mL
Cmax ([1]; MAD day 14, 200 mg QD): 592 ng/mL
concentration at 14 day ([1]; MAD day 14, 200 mg QD): 67.6 ng/mL
half-life ([1]; MAD day 14, 200 mg QD): 11 h
Tmax ([1]; MAD day 14, 200 mg QD): 2 h
AUC ([1]; MAD day 14, 350 mg QD): 10700 ng·h/mL
Cmax ([1]; MAD day 14, 350 mg QD): 1020 ng/mL
concentration at 14 day ([1]; MAD day 14, 350 mg QD): 166 ng/mL
half-life ([1]; MAD day 14, 350 mg QD): 10.2 h
Tmax ([1]; MAD day 14, 350 mg QD): 1.5 h
Effect on the pharmacokinetics of MTX [2]: did not affect the pharmacokinetics of MTX
